Assay results as given in the NIST ThermoML archive (doi:10.1021/acs.jced.8b01157).

Experiment: mn = molality of the nth substance listed, in mol/kg
Conditions: 100 kPa, Liquid; for speed of sound: Frequency=3 MHz, Single path-length method; for mass density: Vibrating tube method

N.N.O=P(O)(O)O [diammonium hydrogen phosphate] + O
Conditions | mass density, 288.15 K [kg/m3] | mass density, 298.15 K [kg/m3] | mass density, 308.15 K [kg/m3] | mass density, 318.15 K [kg/m3] | speed of sound, 288.15 K [m/s] | speed of sound, 298.15 K [m/s] | speed of sound, 308.15 K [m/s] | speed of sound, 318.15 K [m/s]
m1 = 0.5 | 1032.61 | 1030.71 | 1026.1 | 1022.85 | 1517.7 | 1544.3 | 1564.8 | 1581.3
m1 = 1 | 1066.4 | 1064.03 | 1060.22 | 1055.59 | 1572 | 1597.9 | 1614.1 | 1628.3
m1 = 1.5 | 1097.53 | 1095.18 | 1090.11 | 1086.19 | 1629.6 | 1650.4 | 1664.4 | 1676.6

N.O=P(O)(O)O [ammonium dihydrogen phosphate] + O
Conditions | mass density, 288.15 K [kg/m3] | mass density, 298.15 K [kg/m3] | mass density, 308.15 K [kg/m3] | mass density, 318.15 K [kg/m3] | speed of sound, 288.15 K [m/s] | speed of sound, 298.15 K [m/s] | speed of sound, 308.15 K [m/s] | speed of sound, 318.15 K [m/s]
m1 = 0.5 | 1030 | 1026.45 | 1023.33 | 1019.74 | 1507.3 | 1534.9 | 1555.9 | 1570.9
m1 = 1 | 1057.62 | 1054.22 | 1050.98 | 1046.48 | 1544.3 | 1569.7 | 1588.9 | 1602.6
m1 = 1.5 | 1082.56 | 1079.6 | 1075.85 | 1071.76 | 1579 | 1602.4 | 1619.9 | 1631.1
